Reference: patent US11401270B2, “Alcoxyamino derivatives for treating pain and pain related conditions” (ESTEVE PHARMACEUTICALS, S.A., priority 2017, dated 2022)
Where two headings read alike, the source gives them in different places.

Legend:
[1] = target: Human norepinephrine transporter (NET) (Homo sapiens (Human), UniProt P23975); assay: Binding Assay to Human Norepinephrine Transporter (NET); conditions: Table 2, dual compounds; human NET enriched membranes, 5 nM [3H]-Nisoxetin; read-out: Ki(nM) NET Hum
Chain of Human norepinephrine transporter (NET) (P23975 whole entry): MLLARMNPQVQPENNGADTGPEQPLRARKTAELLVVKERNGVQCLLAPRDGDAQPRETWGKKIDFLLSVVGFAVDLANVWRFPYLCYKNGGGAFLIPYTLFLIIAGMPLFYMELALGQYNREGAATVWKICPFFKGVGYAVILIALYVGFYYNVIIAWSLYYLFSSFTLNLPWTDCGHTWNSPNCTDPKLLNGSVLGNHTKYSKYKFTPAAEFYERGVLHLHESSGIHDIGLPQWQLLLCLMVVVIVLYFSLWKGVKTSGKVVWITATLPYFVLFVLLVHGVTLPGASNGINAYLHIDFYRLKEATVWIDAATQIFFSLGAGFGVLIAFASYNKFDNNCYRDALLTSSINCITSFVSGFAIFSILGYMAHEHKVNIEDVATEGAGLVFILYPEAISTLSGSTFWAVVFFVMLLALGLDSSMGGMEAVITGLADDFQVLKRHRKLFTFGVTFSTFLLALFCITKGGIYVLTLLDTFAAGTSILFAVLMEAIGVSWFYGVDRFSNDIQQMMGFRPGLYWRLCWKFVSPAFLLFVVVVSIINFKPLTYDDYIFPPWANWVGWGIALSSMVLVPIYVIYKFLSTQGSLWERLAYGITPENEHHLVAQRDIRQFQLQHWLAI
Method: Binding Assay to Human Norepinephrine Transporter (NET).
Human norepinephrine transporter (NET) enriched membranes (5 μg) were incubated with 5 nM of radiolabeled [3H]-Nisoxetin in assay buffer containing 50 mM Tris-HCl, 120 mM NaCl, 5 mM KCl, pH 7.4.
NSB (non specific binding) was measured by adding 10 μM desipramine. The binding of the test compound was measured in five different concentrations. After 60 min incubation at 4° C., binding reaction was terminated by filtering through Multiscreen GF/C (Millipore) presoaked in 0.5% polyethyleneimine in Vacuum Manifold Station, followed by 3 washes with ice-cold filtration buffer containing 50 mM Tris-HCl, 0.9% NaCl, pH 7.4.
Filter plates were dried at 60° C. for 1 hour and 30 μl of scintillation cocktail were added to each well before radioactivity reading.

[2] = target: Human α2δ-1 subunit of Cav2.2 calcium channel (Homo sapiens (Human), UniProt P54289); assay: Binding Assay to Human α2δ-1 Subunit of Cav2.2 Calcium Channel; conditions: human α2δ-1 enriched membranes, 15 nM [3H]-Gabapentin, read-out: Ki(nM) alpha2delta Hum
Chain of Human α2δ-1 subunit of Cav2.2 calcium channel (P54289 25-1103): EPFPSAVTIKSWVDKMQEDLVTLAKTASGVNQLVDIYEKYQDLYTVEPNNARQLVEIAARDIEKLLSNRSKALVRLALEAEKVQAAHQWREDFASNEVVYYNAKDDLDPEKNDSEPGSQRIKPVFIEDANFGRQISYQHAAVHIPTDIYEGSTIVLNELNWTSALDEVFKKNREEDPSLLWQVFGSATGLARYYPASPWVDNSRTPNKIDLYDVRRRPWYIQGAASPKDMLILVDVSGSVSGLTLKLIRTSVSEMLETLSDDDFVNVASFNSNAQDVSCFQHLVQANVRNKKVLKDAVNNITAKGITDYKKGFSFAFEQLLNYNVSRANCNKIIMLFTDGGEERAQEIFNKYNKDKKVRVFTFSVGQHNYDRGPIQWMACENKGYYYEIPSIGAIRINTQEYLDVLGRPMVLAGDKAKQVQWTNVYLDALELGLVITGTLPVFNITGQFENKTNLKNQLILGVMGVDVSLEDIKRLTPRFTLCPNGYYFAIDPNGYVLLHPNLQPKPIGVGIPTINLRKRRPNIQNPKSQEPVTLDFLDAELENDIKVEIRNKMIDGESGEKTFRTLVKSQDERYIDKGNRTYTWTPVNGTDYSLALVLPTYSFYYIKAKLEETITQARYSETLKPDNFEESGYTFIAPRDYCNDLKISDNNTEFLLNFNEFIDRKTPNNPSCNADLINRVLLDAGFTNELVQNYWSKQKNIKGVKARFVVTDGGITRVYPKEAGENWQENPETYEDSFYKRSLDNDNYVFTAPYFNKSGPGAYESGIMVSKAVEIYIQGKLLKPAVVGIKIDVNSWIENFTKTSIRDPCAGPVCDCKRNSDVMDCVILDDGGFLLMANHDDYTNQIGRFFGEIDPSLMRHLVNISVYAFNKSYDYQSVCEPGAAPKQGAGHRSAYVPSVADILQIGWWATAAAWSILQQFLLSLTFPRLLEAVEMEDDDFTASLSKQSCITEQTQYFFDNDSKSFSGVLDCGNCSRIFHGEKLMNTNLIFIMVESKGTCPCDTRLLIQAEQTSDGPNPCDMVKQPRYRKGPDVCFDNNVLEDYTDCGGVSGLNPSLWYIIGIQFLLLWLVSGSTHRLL
In short: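 Radioligand filtration binding at the α2δ-1 subunit, test compound at five concentrations; nonspecific binding defined with 10 μM pregabalin. Incubated 60 min at 27 °C, stopped by GF/C filtration (0.5% PEI presoaked) with ice-cold 50 mM Tris-HCl pH 7.4 washes; bound radioactivity counted by scintillation.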

SMILES | Ki [1] | Ki ([2]; Table 1) | Ki ([2]; Table 2, dual compounds)
CNCC[C@H](Oc1ccc(CN2CCN(C)c3nc(C(F)(F)F)ccc3C2=O)cc1)c1cccs1 [Example 93, (S)-1-methyl-4-(4-(3-(methylamino)-1-(thiophen-2-yl)propoxy)benzyl)-8-(trifluoromethyl)-1,2,3,4-tetrahydro-5H-pyrido[2,3-e][1,4]diazepin-5-one] | 100 to 500 nM | 100 to 500 nM | 100 to 500 nM
CNCC[C@H](Oc1ccc(CN2CCN(C)c3nc(OC)ccc3C2=O)cc1)c1cccs1 [Example 94, (S)-8-methoxy-1-methyl-4-(4-(3-(methylamino)-1-(thiophen-2-yl)propoxy)benzyl)-1,2,3,4-tetrahydro-5H-pyrido[2,3-e][1,4]diazepin-5-one] | 100 to 500 nM | 100 to 500 nM | 100 to 500 nM
CNCC[C@H](Oc1ccc(CN2CCN(C)c3cnccc3C2=O)cc1)c1cccs1 [Example 96, (S)-1-methyl-4-(4-(3-(methylamino)-1-(thiophen-2-yl)propoxy)benzyl)-1,2,3,4-tetrahydro-5H-pyrido[3,4-e][1,4]diazepin-5-one] | 100 to 500 nM | 100 to 500 nM | 100 to 500 nM
CNCC[C@H](Oc1ccc(CN2CCN(C)c3cccnc3C2=O)cc1)c1cccs1 [Example 97, (S)-1-methyl-4-(4-(3-(methylamino)-1-(thiophen-2-yl)propoxy)benzyl)-1,2,3,4-tetrahydro-5H-pyrido[3,2-e][1,4]diazepin-6-one] | 100 to 500 nM | 500 to 3000 nM | 500 to 3000 nM
CNCC[C@H](Oc1ccc(CN2CCN(C)c3ccccc3C2=O)cc1)c1cccs1 [Example 98, (S)-1-methyl-4-(4-(3-(methylamino)-1-(thiophen-2-yl)propoxy)benzyl)-1,2,3,4-tetrahydro-5H-benzo[e][1,4]diazepin-5-one] | 100 to 500 nM | 500 to 3000 nM | 500 to 3000 nM
CNCCC(Oc1ccc(CN2CCN(C)c3nc(C)ccc3C2=O)cc1)c1cccs1 (stereo not drawn) [Example 100, 1,8-Dimethyl-4-(4-(3-(methylamino)-1-(thiophen-2-yl)propoxy)benzyl)~ 1,2,3,4-tetrahydro-5H-pyrido[2,3-e][1,4]diazepin-5-one] | 500 to 1000 nM | 100 to 500 nM | 100 to 500 nM
CNCC[C@H](Oc1ccc(CN2CCCn3nccc3C2=O)cc1)c1cccs1 [Example 104, (S)-5-(4-(3-(methylamino)-1-(thiophen-2-yl)propoxy)benzyl)-5,6,7,8-tetrahydro-4H-pyrazolo[1,5-a][1,4]diazepin-4-one] | 100 to 500 nM | 100 to 500 nM | 100 to 500 nM
CNCC[C@H](Oc1ccc(CN2CCN(C)c3ncccc3C2=O)c(F)c1)c1cccs1 [Example 108, (S)-4-(2-fluoro-4-(3-(methylamino)-1-(thiophen-2-yl)propoxy)benzyl)-1-methyl-1,2,3,4-tetrahydro-5H-pyrido[2,3-e)[1,4]diazepin-5-one] | 100 to 500 nM | < 100 nM | < 100 nM
CNCC[C@H](Oc1ccc(CN2CCN(C)c3ncccc3C2=O)c(C)c1)c1ccccc1 [Example 114, (S)-1-methyl-4-(2-methyl-4-(3-(methylamino)-1-phenylpropoxy)benzyl)-1,2,3,4-tetrahydro-5H-pyrido[2,3-e][1,4]diazepin-5-one] | 100 to 500 nM | 100 to 500 nM | 100 to 500 nM
CNCCC(Oc1ccc(F)c(N2CCN(C)c3ncccc3C2=O)c1)c1cccc(F)c1 (stereo not drawn) [Example 119, 4-(2-Fluoro-5-(1-(3-ftuorophenyl)-3-(methylamino)propoxy)phenyl)-1-methyl-1,2,3,4-tetrahydro-5H-pyrido[2,3-e][1,4]diazepin-5-one] | < 100 nM | 100 to 500 nM | 100 to 500 nM
CNCC[C@H](Oc1cc(F)cc(N2CCN(C)c3ncccc3C2=O)c1)c1cccs1 [Example 120, (S)-4-(3-fluoro-5-(3-(methylamino)-1-(thiophen-2-yl)propoxy)phenyl)-1-methyl-1,2,3,4-tetrahydro-5H-pyrido[2,3-e][1,4]diazepin-5-one] | < 100 nM | < 100 nM | < 100 nM
CNCCC(Oc1cc(F)cc(N2CCN(C)c3ncccc3C2=O)c1)c1cccc(F)c1 (stereo not drawn) [Example 121, 4-(3-Fluoro-5-(1-(3-fluorophenyl)-3-(methylamino)propoxy)phenyl)-1-methyl-1,2,3,4-tetrahydro-5H-pyrido[2,3-e][1,4]diazepin-5-one] | < 100 nM | < 100 nM | < 100 nM
CNCCC(Oc1ccc(CN2CCN(C)c3ncccc3C2=O)c(F)c1)c1cccc(F)c1 (stereo not drawn) [Example 123, 4-(2-Fluoro-4-(1-(3-fluorophenyl)-3-(methylamino)propoxy)benzyl)-1-methyl-1,2,3,4-telrahydro-5H-pyrido[2,3-e][1,4]diazepin-5-one] | < 100 nM | < 100 nM | < 100 nM
CNCC[C@H](Oc1ccc(CN2CCN(C)c3ncccc3C2=O)c(Cl)c1)c1cccs1 [Example 126, (S)-4-(2-chloro-4-(3-(methylamino)-1-(thiophen-2-yl)propoxy)benzyl)-1-methyl-1,2,3,4-tetrahydro-5H-pyrido[2,3-e][1,4]diazepin-5-one] | < 100 nM | < 100 nM | < 100 nM
CNCCC(Oc1ccc(CN2CCN(C)c3ncccc3C2=O)c(F)c1)c1ccccc1F (stereo not drawn) [Example 129, 4-(2-Fluoro-4-(1-(2-fluorophenyl)-3-(methylamino)propoxy)benzyl)-1-methyl-1,2,3,4-tetrahydro-5H-pyrido[2,3-e][1,4]diazepin-5-one] | < 100 nM | 100 to 500 nM | 100 to 500 nM
CNCCC(Oc1ccc(CN2CCN(C)c3nc(N)ccc3C2=O)c(F)c1)c1cccc(F)c1 (stereo not drawn) [Example 131, 8-Amino-4-(2-fluoro-4-(1-(3-fluorophenyl)-3-(methylamino)propoxy)benzyl)-1-methyl-1,2,3,4-tetrahydro-5H-pyrido[2,3-e][1,4]diazepin-5-one] | < 100 nM | < 100 nM | < 100 nM
CNCC[C@H](Oc1ccc(CN2CCN(C)c3nc(OC)ccc3C2=O)c(F)c1)c1ccccc1 [Example 132, (S)-4-(2-fluoro-4-(3-(methylamino)-1-phenylpropoxy)benzyl)-8-methoxy-1-methyl-1,2,3,4-tetrahydro-5H-pyrido[2,3-e][1,4]diazepin-5-one] | < 100 nM | 100 to 500 nM | 100 to 500 nM

Second part, the compound after the results:

Ki [1] | Ki ([2]; Table 1) | Ki ([2]; Table 2, dual compounds) | SMILES
< 100 nM | 100 to 500 nM | 100 to 500 nM | CCNc1ccc2c(n1)N(C)CCN(Cc1ccc(O[C@@H](CCNC)c3cccs3)cc1)C2=O [Example 92, (S)-8-(ethylamino)-1-methyl-4-(4-(3-(methylamino)-1-(thiophen-2-yl)propoxy)benzyl)-1,2,3,4-tetrahydro-5H-pyrido[2,3-e][1,4]diazepin-5-one]
< 100 nM | < 100 nM | < 100 nM | CNCCC(Oc1ccc(CN2CCN(C)c3ncccc3C2=O)cc1)c1cccs1 (stereo not drawn) [Example 99, 1-Methyl-4-(4-(3-(methylamino)-1-(thiophen-2-yl)propoxy)benzyl)-1,2,3,4-tetrahydro-5H-pyrido[2,3-e][1,4]diazepin-5-one]
< 100 nM | < 100 nM | < 100 nM | CNCC[C@H](Oc1ccc(CN2CCN(C)c3nc(N)ccc3C2=O)cc1)c1cccs1 [Example 103, (S)-8-amino-1-methyl-4-(4-(3-(methylamino)-1-(thiophen-2-yl)propoxy)benzyl)-1,2,3,4-tetrahydro-5H-pyrido[2,3-e][1,4]diazepin-5-one]
< 100 nM | 500 to 3000 nM | 500 to 3000 nM | CNCCC(Oc1ccc(CN2CCN(C)c3nc(C)ccc3C2=O)cc1)c1ccccc1 (stereo not drawn) [Example 110, 1,8-Dimethyl-4-(4-(3-(methylamino)-1-phenylpropoxy)benzyl)-1,2,3,4-tetrahydro-5H-pyrido[2,3-e][1,4]diazepin-5-one]
< 100 nM | 500 to 3000 nM | 500 to 3000 nM | CCNc1ccc2c(n1)N(C)CCN(Cc1ccc(OC(CCNC)c3ccccc3)cc1)C2=O (stereo not drawn) [Example 111, 8-(Ethylamino)-1-methyl-4-(4-(3-(methylamino)-1-phenylpropoxy)benzyl)-1,2,3,4-tetrahydro-5H-pyrido[2,3-e][1,4]diazepin-5-one]
< 100 nM | 500 to 3000 nM | 500 to 3000 nM | CNCCC(Oc1ccc(CN2CCN(C)c3ncccc3C2=O)cc1)c1ccc(F)cc1 (stereo not drawn) [Example 115, 4-(4-(1-(4-Fluorophenyl)-3-(methylamino)propoxy)benzyl)-1-methyl-1,2,3,4-tetrahydro-5H-pyrido[2,3-e][1,4]diazepin-5-one]
< 100 nM | < 100 nM | < 100 nM | CNCC[C@H](Oc1ccc(CN2CCN(C)c3ncccc3C2=O)c(F)c1)c1ccccc1 [Example 116, (S)-4-(2-fluoro-4-(3-(methylamino)-1-phenylpropoxy)benzyl)-1-methyl-1,2,3,4-tetrahydro-5H-pyrido[2,3-e][1,4]diazepin-5-one]
< 100 nM | 100 to 500 nM | 100 to 500 nM | CNCCC(Oc1ccc(CN2CCN(C)c3ncccc3C2=O)cc1)c1cccc(F)c1 (stereo not drawn) [Example 117, 4-(4-(1-(3-Fluorophenyl)-3-(methylamino)propoxy)benzyl)-1-methyl-1,2,3,4-tetrahydro-5H-pyrido[2,3-e][1,4]diazepin-5-one]
